According to patent US20250042875A1, “PESTICIDALLY ACTIVE PYRIDAZINONE COMPOUNDS” (SYNGENTA CROP PROTECTION AG, priority 2021, published 2025):

Tests used:
Format in all cases: in vivo
Spodoptera littoralis = assay: Activity against Spodoptera littoralis (Egyptian cotton leaf worm), cotton leaf discs, L1 larvae; settings: foliar, 72 h, application rate 200 ppm, 3 days after infestation, read-out: control in at least one of the three categories (mortality, anti-feedant effect, or growth inhibition)
Protocol: Example B8: Activity Against Spodoptera littoralis (Egyptian Cotton Leaf Worm)
Cotton leaf discs were placed onto agar in 24-well microtiter plates and sprayed with aqueous test solutions prepared from 10′000 ppm DMSO stock solutions. After drying the leaf discs were infested with five L1 larvae. The samples were assessed for mortality, anti-feeding effect, and growth inhibition in comparison to untreated samples 3 days after infestation. Control of Spodoptera littoralis by a test sample is given when at least one of the categories mortality, anti-feedant effect, and growth inhibition is higher than the untreated sample.

Chilo suppressalis = assay: Activity against Chilo suppressalis (striped rice stemborer), artificial diet, L2 larvae; settings: 144 h, application rate 200 ppm, 6 days after infestation, read-out: control in at least one of the three categories (mortality, anti-feedant effect, or growth inhibition)
Protocol: Example B1: Activity Against Chilo suppressalis (Striped Rice Stemborer)
24-well microtiter plates with artificial diet were treated with aqueous test solutions prepared from 10′000 ppm DMSO stock solutions by pipetting. After drying, the plates were infested with L2 larvae (6-8 per well). The samples were assessed for mortality, anti-feeding effect, and growth inhibition in comparison to untreated samples 6 days after infestation. Control of Chilo suppressalis by a test sample is given when at least one of the categories mortality, anti-feedant effect, and growth inhibition is higher than the untreated sample.

Diabrotica balteata = assay: Activity against Diabrotica balteata (corn root worm), maize sprouts, L2 larvae; settings: 96 h, application rate 200 ppm, 4 days after infestation, read-out: control in at least one of the two categories (mortality or growth inhibition)
Protocol: Example B2: Activity Against Diabrotica Balteata (Corn Root Worm)
Maize sprouts placed onto an agar layer in 24-well microtiter plates were treated with aqueous test solutions prepared from 10′000 ppm DMSO stock solutions by spraying. After drying, the plates were infested with L2 larvae (6 to 10 per well). The samples were assessed for mortality and growth inhibition in comparison to untreated samples 4 days after infestation.

Myzus persicae = assay: Activity against Myzus persicae (green peach aphid), intrinsic activity; settings: 120 h, test rate 12 ppm, 5 days after infestation
Text: Example B6: Activity Against Myzus persicae (Green Peach Aphid). Intrinsic Activity
Test compounds prepared from 10′000 ppm DMSO stock solutions were applied by pipette into 24-well microtiter plates and mixed with sucrose solution. The plates were closed with a stretched Parafilm. A plastic stencil with 24 holes was placed onto the plate and infested pea seedlings were placed directly on the Parafilm. The infested plate was closed with a gel blotting paper and another plastic stencil and then turned upside down. The samples were assessed for mortality 5 days after infestation.

Plutella xylostella = assay: Activity against Plutella xylostella (diamond back moth), artificial diet, eggs; settings: 192 h, application rate 200 ppm, 8 days after infestation, read-out: control in at least one of the two categories (mortality or growth inhibition)
Protocol: Example B7: Activity Against Plutella xylostella (Diamond Back Moth)
24-well microtiter plates with artificial diet were treated with aqueous test solutions prepared from 10′000 ppm DMSO stock solutions by pipetting. After drying, Plutella eggs were pipetted through a plastic stencil onto a gel blotting paper and the plate was closed with it. The samples were assessed for mortality and growth inhibition in comparison to untreated samples 8 days after infestation.

Euschistus heros = assay: Activity against Euschistus heros (neotropical brown stink bug), soybean leaves, N2 nymphs; settings: 120 h, application rate 200 ppm, 5 days after infestation, read-out: effect in at least one of the two categories (mortality or growth inhibition)
Protocol: Example B3: Activity Against Euschistus heros (Neotropical Brown Stink Bug)
Soybean leaves on agar in 24-well microtiter plates were sprayed with aqueous test solutions prepared from 10′000 ppm DMSO stock solutions. After drying the leaves were infested with N2 nymphs. The samples were assessed for mortality and growth inhibition in comparison to untreated samples 5 days after infestation.

CC(NC(=O)c1cc(C(F)(F)F)cc(C(F)(F)F)c1)c1nccnc1-c1ccc(=O)n(C)n1 (stereo not shown) [P3, N-[1-[3-(1-methyl-6-oxo-pyridazin-3-yl)pyrazin-2-yl]ethyl]-3,5-bis(trifluoromethyl)benzamide]
≥ 80%: percent control (mortality, anti-feedant effect or growth inhibition) at 200 ppm (Spodoptera littoralis) | percent control (mortality, anti-feedant effect or growth inhibition) at 200 ppm (Chilo suppressalis) | percent control (mortality or growth inhibition) at 200 ppm (Diabrotica balteata) | mortality at 12 ppm (Myzus persicae) | percent control (mortality or growth inhibition) at 200 ppm (Plutella xylostella)

C[C@H](NC(=O)c1cc(Cl)cc(C(F)(F)F)c1)c1ncnn1-c1ccc(=O)n(C)n1 [P4, 3-chloro-N-[(1S)-1-[2-(1-methyl-6-oxo-pyridazin-3-yl)-1,2,4-triazol-3-yl]ethyl]-5-(trifluoromethyl) benzamide]
≥ 80%: percent control (mortality, anti-feedant effect or growth inhibition) at 200 ppm (Spodoptera littoralis) | percent control (mortality, anti-feedant effect or growth inhibition) at 200 ppm (Chilo suppressalis) | percent control (mortality or growth inhibition) at 200 ppm (Diabrotica balteata) | mortality at 12 ppm (Myzus persicae) | percent effect (mortality or growth inhibition) at 200 ppm (Euschistus heros) | percent control (mortality or growth inhibition) at 200 ppm (Plutella xylostella)

CC(NC(=O)c1cc(Cl)cc(I)c1)c1nccnc1-c1ccc(=O)n(C)n1 (stereo not shown) [P12, 3-chloro-5-iodo-N-[1-[3-(1-methyl-6-oxo-pyridazin-3-yl)pyrazin-2-yl]ethyl]benzamide]
≥ 80%: percent control (mortality, anti-feedant effect or growth inhibition) at 200 ppm (Spodoptera littoralis) | percent control (mortality, anti-feedant effect or growth inhibition) at 200 ppm (Chilo suppressalis) | percent control (mortality or growth inhibition) at 200 ppm (Diabrotica balteata) | mortality at 12 ppm (Myzus persicae) | percent control (mortality or growth inhibition) at 200 ppm (Plutella xylostella)

CC(NC(=O)c1cc(Br)cc(Br)c1)c1nccnc1-c1ccc(=O)n(C)n1 (stereo not shown) [P13, 3,5-dibromo-N-[1-[3-(1-methyl-6-oxo-pyridazin-3-yl)pyrazin-2-yl]ethyl]benzamide]
≥ 80%: percent control (mortality, anti-feedant effect or growth inhibition) at 200 ppm (Spodoptera littoralis) | percent control (mortality, anti-feedant effect or growth inhibition) at 200 ppm (Chilo suppressalis) | percent control (mortality or growth inhibition) at 200 ppm (Diabrotica balteata) | mortality at 12 ppm (Myzus persicae) | percent control (mortality or growth inhibition) at 200 ppm (Plutella xylostella)

CC(NC(=O)c1cc(Br)cc(I)c1)c1nccnc1-c1ccc(=O)n(C)n1 (stereo not shown) [P15, 3-bromo-5-iodo-N-[1-[3-(1-methyl-6-oxo-pyridazin-3-yl)pyrazin-2-yl]ethyl]benzamide]
≥ 80%: percent control (mortality, anti-feedant effect or growth inhibition) at 200 ppm (Spodoptera littoralis) | percent control (mortality, anti-feedant effect or growth inhibition) at 200 ppm (Chilo suppressalis) | mortality at 12 ppm (Myzus persicae) | percent control (mortality or growth inhibition) at 200 ppm (Plutella xylostella)

C[C@H](NC(=O)c1cc(Cl)cc(S(=O)(=O)C(F)(F)F)c1)c1ncnn1C1=NN(C)C(=O)CC1 [P21, 3-chloro-N-[(1S)-1-[2-(1-methyl-6-oxo-4,5-dihydropyridazin-3-yl)-1,2,4-triazol-3-yl]ethyl]-5-(trifluoromethylsulfonyl) benzamide]
≥ 80%: percent control (mortality, anti-feedant effect or growth inhibition) at 200 ppm (Spodoptera littoralis) | percent control (mortality, anti-feedant effect or growth inhibition) at 200 ppm (Chilo suppressalis) | percent control (mortality or growth inhibition) at 200 ppm (Diabrotica balteata) | mortality at 12 ppm (Myzus persicae) | percent effect (mortality or growth inhibition) at 200 ppm (Euschistus heros) | percent control (mortality or growth inhibition) at 200 ppm (Plutella xylostella)

C[C@H](NC(=O)c1cc(C(F)(F)F)cc(C2(C#N)CC2)c1)c1ncnn1-c1ccc(=O)n(C)n1 [P25, 3-(1-cyanocyclopropyl)-N-[(1S)-1-[2-(1-methyl-6-oxo-pyridazin-3-yl)-1,2,4-triazol-3-yl]ethyl]-5-(trifluoromethyl)benzamide]
≥ 80%: percent control (mortality, anti-feedant effect or growth inhibition) at 200 ppm (Spodoptera littoralis) | percent control (mortality, anti-feedant effect or growth inhibition) at 200 ppm (Chilo suppressalis) | percent control (mortality or growth inhibition) at 200 ppm (Diabrotica balteata) | mortality at 12 ppm (Myzus persicae) | percent effect (mortality or growth inhibition) at 200 ppm (Euschistus heros) | percent control (mortality or growth inhibition) at 200 ppm (Plutella xylostella)

CC(NC(=O)c1cc(Cl)cc(S(=O)(=O)C(F)(F)F)c1)c1nccnc1-c1ccc(=O)n(C)n1 (stereo not shown) [P31, 3-chloro-N-[1-[3-(1-methyl-6-oxo-pyridazin-3-yl)pyrazin-2-yl]ethyl]-5-(trifluoromethylsulfonyl) benzamide]
≥ 80%: percent control (mortality, anti-feedant effect or growth inhibition) at 200 ppm (Spodoptera littoralis) | percent control (mortality, anti-feedant effect or growth inhibition) at 200 ppm (Chilo suppressalis) | mortality at 12 ppm (Myzus persicae) | percent control (mortality or growth inhibition) at 200 ppm (Plutella xylostella)

C[C@H](NC(=O)c1cc(I)cc(C(F)(F)F)c1)c1ncnn1-c1ccc(=O)n(C)n1 [P36, 3-iodo-N-[(1S)-1-[2-(1-methyl-6-oxo-pyridazin-3-yl)-1,2,4-triazol-3-yl]ethyl]-5-(trifluoromethyl)benzamide]
≥ 80%: percent control (mortality, anti-feedant effect or growth inhibition) at 200 ppm (Spodoptera littoralis) | percent control (mortality, anti-feedant effect or growth inhibition) at 200 ppm (Chilo suppressalis) | percent control (mortality or growth inhibition) at 200 ppm (Diabrotica balteata) | mortality at 12 ppm (Myzus persicae) | percent effect (mortality or growth inhibition) at 200 ppm (Euschistus heros) | percent control (mortality or growth inhibition) at 200 ppm (Plutella xylostella)

C[C@H](NC(=O)c1cc(Cl)cc(OC(F)F)c1)c1ncnn1-c1ccc(=O)n(C)n1 [P37, 3-chloro-5-(difluoromethoxy)-N-[(1S)-1-[2-(1-methyl-6-oxo-pyridazin-3-yl)-1,2,4-triazol-3-yl]ethyl]benzamide]
≥ 80%: percent control (mortality or growth inhibition) at 200 ppm (Diabrotica balteata) | mortality at 12 ppm (Myzus persicae) | percent effect (mortality or growth inhibition) at 200 ppm (Euschistus heros) | percent control (mortality or growth inhibition) at 200 ppm (Plutella xylostella)

CC(NC(=O)c1cc(Br)nc(C2(C#N)CC2)c1)c1nccnc1-c1ccc(=O)n(C)n1 (stereo not shown) [P38, 2-bromo-6-(1-cyanocyclopropyl)-N-[1-[3-(1-methyl-6-oxo-pyridazin-3-yl)pyrazin-2-yl]ethyl]pyridine-4-carboxamide]
≥ 80%: percent control (mortality, anti-feedant effect or growth inhibition) at 200 ppm (Spodoptera littoralis) | percent control (mortality, anti-feedant effect or growth inhibition) at 200 ppm (Chilo suppressalis) | percent control (mortality or growth inhibition) at 200 ppm (Plutella xylostella)

C[C@H](NC(=O)c1cc(Br)nc(C2(C#N)CC2)c1)c1ncnn1-c1ccc(=O)n(C)n1 [P39, 2-bromo-6-(1-cyanocyclopropyl)-N-[(1S)-1-[2-(1-methyl-6-oxo-pyridazin-3-yl)-1,2,4-triazol-3-yl]ethyl]pyridine-4-carboxamide]
≥ 80%: percent effect (mortality or growth inhibition) at 200 ppm (Euschistus heros)

CC(NC(=O)c1cc(Cl)cc(C(F)F)c1)c1nccnc1-c1ccc(=O)n(C)n1 (stereo not shown) [P41, 3-chloro-5-(difluoromethyl)-N-[1-[3-(1-methyl-6-oxo-pyridazin-3-yl)pyrazin-2-yl]ethyl]benzamide]
≥ 80%: percent control (mortality, anti-feedant effect or growth inhibition) at 200 ppm (Spodoptera littoralis) | percent control (mortality, anti-feedant effect or growth inhibition) at 200 ppm (Chilo suppressalis) | percent control (mortality or growth inhibition) at 200 ppm (Diabrotica balteata) | mortality at 12 ppm (Myzus persicae) | percent control (mortality or growth inhibition) at 200 ppm (Plutella xylostella)

C[C@H](NC(=O)c1cc(Cl)cc(C(F)F)c1)c1ncnn1-c1ccc(=O)n(C)n1 [P42, 3-chloro-5-(difluoromethyl)-N-[(1S)-1-[2-(1-methyl-6-oxo-pyridazin-3-yl)-1,2,4-triazol-3-yl]ethyl]benzamide]
≥ 80%: percent control (mortality, anti-feedant effect or growth inhibition) at 200 ppm (Spodoptera littoralis) | percent control (mortality or growth inhibition) at 200 ppm (Diabrotica balteata) | mortality at 12 ppm (Myzus persicae) | percent effect (mortality or growth inhibition) at 200 ppm (Euschistus heros) | percent control (mortality or growth inhibition) at 200 ppm (Plutella xylostella)

CC(NC(=O)c1cc(Br)cc(C(F)(F)F)c1)c1nccnc1-c1cn(C)c(=O)cn1 (stereo not shown) [P48, 3-bromo-N-[1-[3-(4-methyl-5-oxo-pyrazin-2-yl)pyrazin-2-yl]ethyl]-5-(trifluoromethyl)benzamide]
≥ 80%: percent control (mortality, anti-feedant effect or growth inhibition) at 200 ppm (Spodoptera littoralis) | percent control (mortality, anti-feedant effect or growth inhibition) at 200 ppm (Chilo suppressalis) | percent control (mortality or growth inhibition) at 200 ppm (Diabrotica balteata) | mortality at 12 ppm (Myzus persicae) | percent control (mortality or growth inhibition) at 200 ppm (Plutella xylostella)
